Legend:
[1] = test system: CYP7A1 and DUSP6 transcript levels in tumor biopsies; experiment: Tumor biopsy RNAseq pharmacodynamics; type: in vivo, human
Protocol: Additionally, exploratory biomarker endpoints to assess FGF19-FGFR4 signaling inhibition by FGF401 included temporal profiling of C4, FGF19, total bile acid and total cholesterol levels in blood, and CYP7A1 and DUSP6 transcript levels in tumor biopsies. An immunohistochemistry (IHC) assay to detect FGF19 was used retrospectively on remnant samples and the association of FGF19 expression levels with best change in sum of diameters (SOD) for RECIST v1.1 in the single-agent was evaluated.
For RNAseq based studies, extracted total RNA was depleted from ribosomal RNA using RNAseH. The rRNA-depleted sample was then prepared for sequencing using the TruSeq RNA v.2 Library Preparation kit (Illumina). After pooling the captured library using unique adapter index sequences and applying the pool to a sequencing flow cell, they were sequenced using Illumina v.4 chemistry and paired-end 100-bp reads. Sequence data were aligned to the reference human genome (build hg19) using STAR v.2.4.0e. Mapped reads were then used to quantify transcripts with HTSeq v.0.6.1p1 [28] and RefSeq GRCh38 v.82 gene annotation. Gene expression data were normalized using the trimmed mean of M-value normalization as implemented in the edgeR – Bioconductor package v.3.20.9 [29].

[2] = test system: patients with HCC or other solid tumors positive for FGFR4 and KLB; experiment: Phase 1 dose escalation, DLTs, MTD/RP2D, FGF401 single agent; type: in vivo
Protocol: Phase 1: Escalation with overdose control (EWOC) principle based on the observed dose-limiting toxicities (DLTs) was employed while escalating dosage starting with 50 mg until the lowest of MTD and/or RP2D was met. Sample size to have reasonable operating characteristics was estimated to be a minimum of 21 evaluable patients.
To further assess the effect of food uptake on FGF401, additional patients were recruited upon observance of clinical activity to receive doses under fed condition, in parallel with the fasted dose escalation. The starting dose was estimated at 80 mg qd. Principles of dose escalation aligned with those under fasted condition.
(§1) The primary endpoint for the phase 1 parts was the incidence of DLTs evaluated. The probability of DLTs during the evaluation period was estimated for patients in the dose determining set (DDS) for each treatment arm, FGF401 single agent and FGF401 + spartalizumab combination, to estimate respective MTDs. DDS for the phase 1 single agent or combination comprised safety set patients who either experienced a DLT or had confirmation by both the sponsor and investigators that no DLT occurred during the first cycle, C1 (first 2 cycles: C1, C2) based on at least 66% of planned doses administered in C1 (C1 and C2) with a minimum of 21 (42) days of observation following the first dose. For phase 2, the primary efficacy endpoint to investigate the antitumor activity of FGF401 included time to tumor progression assessed in groups 1 and 2, and overall response rate (ORR) in group 3 based on local assessment per Response Evaluation Criteria in Solid Tumors (RECIST) v1.1.
For the single-agent phase 1 primary outcome, an extended Bayesian hierarchical logistical regression model (BHLRM) was applied to estimate the relationship between dose and stratum (fasted vs fed) specific probability of a patient experiencing a DLT. […]

phospho-FGFR4 [3] = experiment: Preclinical in vivo phospho-FGFR4 inhibition; conditions: equivalent of 52.1 nM
[4] = test system: HCC or other solid tumors expressing FGFR4 and KLB; experiment: Antitumor activity per RECIST v1.1, FGF401 single agent; type: in vivo, human
Excerpt: as §1
Antitumor activity was locally assessed as per RECIST v1.1 and immune-related response criteria (irRC) (only for combination arm) and evaluated using the following endpoints: best overall response, overall response rate (ORR), disease control rate (DCR), time to tumor progression, and overall survival (OS). Estimation of best overall response (BOR) was based on assessments collected no later than 30 days after the last study treatment administration date for RECIST v1.1 and 150 days for irRC.
The primary and secondary efficacy outcomes were analyzed in the full analysis set according to the assigned treatment stratified by study group, which we defined as a subgroup (fast/fed, group 1/2/3) of patients who were administered with similar dose levels on a given treatment arm and phase. The results have been presented as per RECIST v1.1. The number of patients having BOR was provided along with ORR and DCR with 95% exact binomial CIs (Clopper-Pearson). Waterfall plots for the phase 1 parts depicted the best percentage change from baseline in sum of longest diameters (SOD). […] The estimate at a given time point was the estimated probability that a patient would remain event free up to that time point. A positive trend regarding the activity of FGF401 in groups 1 and 2 was concluded if the observed lower limit of their respective 90% CI was no less than their expected median TTPs of 1.5 months and 2.2 months estimated in the absence of FGF401. KM plots were also used to estimate OS rate with one-sided 95% CI at 3 months, 5 months, 7 months, and 9 months for single agent phase 1 overall and phase 2: groups 1, 2; for single agent phase 2 – group 3, OS, and progression free survival (PFS) were calculated regardless of RP2D but for overall tumor type.
Exploratory biomarker analyses were conducted using full analysis set to assess efficacy and FGF19 signaling inhibition associated with FGF401. The best tumor percentage change from baseline as per RECIST v1.1 were investigated by FGF19 status (positive/negative) as determined through RT-qPCR and IHC assay. An evaluable RT-qPCR sample was considered FGF19+ if mean threshold cycle for FGF19 was ≤35, and FGF19- otherwise. Among the patients with evaluable IHC assay samples, those who had % cellular positivity > 0 were considered FGF19 + .

phospho-FGFR4 [5] = conditions: preclinical; read-out: in vivo phospho-FGFR4 IC90; cited from earlier work
[6] = most on-treatment biopsies obtained at C1D8
[7] = single agent, phase I and phase II in total

## COCCNc1cc(NC(=O)N2CCCc3cc(CN4CCN(C)CC4=O)c(C=O)nc32)ncc1C#N [FGF401, roblitinib]
[1]; [6]
  CYP7A1 transcript in on-treatment versus pretreatment biopsies: upregulation
  DUSP6 transcript in on-treatment versus pretreatment biopsies: downregulation
[1]; signatures summarized with GSVA
  changes in immune infiltration after FGF401 treatment: did not observe significant changes
[2]; human, in vivo, 21 days
  DLT: increase in blood bilirubin: 2 n
  DLT: increase in transaminases: 4 n
[2]; single agent, 50 to 150 mg
  MTD: not reached
phospho-FGFR4 [3]
  IC90 equivalent in human plasma: ~ 23 ng/mL
[4]; 120 mg, phase 1, fed and fasted combined, N = 45
  median TTP: 2.63 months
[4]; 120 mg, phase 1, fed and fasted combined, n/N = 38/45
  median OS: 5.72 months
[4]; all in patients with HCC
  patients reporting PR at RP2D in phase 2: 4 patients
[4]; patients with HCC, phase 1/2, 27 FGF19 positive, 33 negative
  response by FGF19 IHC status: trend for better response among the FGF19 IHC-positive patients
[4]; phase 1
  responses in patients with other tumor types: no responses
[4]; phase 1, 59 evaluable patients with HCC, 80 mg fasted, 80 mg fed, 150 mg fasted, each
  partial response (PR): 3 patients
[4]; phase 1, 59 evaluable patients with HCC, 120 mg, fasted
  complete response (CR): 1 patient
[4]; phase 2 group 1
  probability estimate of remaining event free (90% CI) at 9 months: 30.4 [19.1, 100]
[4]; phase 2 group 1 (n = 28), 120 mg qd
  PR: 2 patients
[4]; phase 2 group 2
  probability estimate of remaining event free (90% CI) at 9 months: 61.5 (49.8, 100)
[4]; phase 2 group 2 (n = 31), 120 mg qd
  PR: 2 patients
[4]; phase 2 group 3
  probability estimate of remaining event free (90% CI) at 9 months: 24.7 [12.6, 100]
[4]; [7]
  CR: 1 patients
  PR: 7 patients
  patients with objective responses: 8 patients
[4]; single-agent arm, prescreening biopsy
  association of FGF19 transcript level (RT-qPCR) with response: no clear association with response
phospho-FGFR4 [5]
  IC90: 52.1 nM

Reference: paper PMC9161616, “A first-in-human phase 1/2 study of FGF401 and combination of FGF401 with spartalizumab in patients with hepatocellular carcinoma or biomarker-selected solid tumors” (Journal of Experimental & Clinical Cancer Research : CR, 2022)
